According to PubChem BioAssay AID330 (DTP/NCI, 2004):
Several values for one entry are separate records, joined by “and”; a condition that tells them apart may be missing. Identical values can stand only once. Inconclusive results and toxic doses are left out.

System: P388 leukemia ip, CD2F1 mice, survival T/C
Assay: NCI In Vivo Anticancer Drug Screen. Data for tumor model P388 Leukemia (intraperitoneal) in CD2F1 (CDF1) mice
Details: endpoint: median survival time, higher = longer survival
In short: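 Mice carrying the transplanted tumor received test compound or vehicle. Survival was recorded in each group, and the value is the treated-group measurement divided by that of the vehicle-treated control group.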

[1] = dose: 60.0 mg/kg/injection, schedule: Q01DX005 (ip), vehicle: saline with Tween-80
[2] = dose: 120.0 mg/kg/injection, schedule: Q01DX005 (ip), vehicle: saline with Tween-80
[3] = dose: 240.0 mg/kg/injection, schedule: Q01DX005 (ip), vehicle: saline with Tween-80
[4] = dose: 25.0 mg/kg/injection, schedule: Q01DX001 (ip), vehicle: saline with Tween-80
[5] = dose: 50.0 mg/kg/injection, schedule: Q01DX001 (ip), vehicle: saline with Tween-80
[6] = dose: 50.0 mg/kg/injection, schedule: Q01DX005 (ip), vehicle: Klucel (hydroxypropylcellulose) (HPC)
[7] = dose: 50.0 mg/kg/injection, schedule: Q01DX005 (ip), vehicle: saline
[8] = dose: 50.0 mg/kg/injection, schedule: Q01DX009 (ip), vehicle: other
[9] = dose: 100.0 mg/kg/injection, schedule: Q01DX009 (ip), vehicle: other
[10] = dose: 200.0 mg/kg/injection, schedule: Q01DX009 (ip), vehicle: other
[11] = dose: 100.0 mg/kg/injection, schedule: Q04DX003 (ip), vehicle: saline
[12] = dose: 200.0 mg/kg/injection, schedule: Q04DX003 (ip), vehicle: saline
[13] = dose: 50.0 mg/kg/injection, schedule: Q01DX005 (ip), vehicle: saline with Tween-80
[14] = dose: 100.0 mg/kg/injection, schedule: Q01DX005 (ip), vehicle: saline with Tween-80
[15] = dose: 200.0 mg/kg/injection, schedule: Q01DX005 (ip), vehicle: saline with Tween-80
[16] = dose: 100.0 mg/kg/injection, schedule: Q01DX005 (ip), vehicle: Klucel (hydroxypropylcellulose) (HPC)
[17] = dose: 200.0 mg/kg/injection, schedule: Q01DX005 (ip), vehicle: Klucel (hydroxypropylcellulose) (HPC)
[18] = dose: 100.0 mg/kg/injection, schedule: Q01DX005 (ip), vehicle: saline

Nc1ccn(C2CC(O)C(CO)O2)c(=O)n1 (stereo not given)
T/C (dose: 4.6 mg/kg/injection, schedule: Q01DX009 (ip), vehicle: water): 95 % of control | T/C (dose: 9.38 mg/kg/injection, schedule: Q01DX009 (ip), vehicle: water): 100 % of control | T/C (dose: 18.75 mg/kg/injection, schedule: Q01DX009 (ip), vehicle: water): 105 % of control and 87 % of control | T/C (dose: 37.5 mg/kg/injection, schedule: Q01DX009 (ip), vehicle: water): 112 % of control | T/C (dose: 75.0 mg/kg/injection, schedule: Q01DX009 (ip), vehicle: water): 96 % of control | T/C (dose: 150.0 mg/kg/injection, schedule: Q01DX009 (ip), vehicle: water): 103 % of control

O=C(CNC(=O)Nc1cccc([N+](=O)[O-])c1)NNC(=O)Nc1ccc(Cl)c([N+](=O)[O-])c1
T/C [1]: 91 % of control | T/C [2]: 91 % of control | T/C [3]: 106 % of control

OCc1c(Cl)nc2n1CCS2
T/C [4]: 104 % of control | T/C [5]: 104 % of control

CC1C2CCC3C4CC=C5CC(N(C)C)CCC5(C)C4CCC32CN1C (stereo not given)
T/C (dose: 12.5 mg/kg/injection, schedule: Q01DX005 (ip), vehicle: Klucel (hydroxypropylcellulose) (HPC)): 105 % of control | T/C (dose: 12.5 mg/kg/injection, schedule: Q01DX005 (ip), vehicle: saline): 94 % of control | T/C (dose: 25.0 mg/kg/injection, schedule: Q01DX005 (ip), vehicle: Klucel (hydroxypropylcellulose) (HPC)): 105 % of control | T/C (dose: 25.0 mg/kg/injection, schedule: Q01DX005 (ip), vehicle: saline): 94 % of control | T/C (dose: 25.0 mg/kg/injection, schedule: Q01DX009 (ip), vehicle: saline): 105 % of control | T/C [6]: 103 % of control and 113 % of control | T/C [7]: 106 % of control and 107 % of control | T/C (dose: 50.0 mg/kg/injection, schedule: Q01DX009 (ip), vehicle: saline): 88 % of control

Cc1ccc(S(=O)/C=C/c2ccccc2)cc1 (stereo not given)
T/C [8]: 103 % of control | T/C [9]: 97 % of control | T/C [10]: 101 % of control

CC(C)CCCC(C)C1CCC2C3CCC4CC(OS(C)(=O)=O)CCC4(C)C3CCC12C (stereo not given)
T/C (dose: 50.0 mg/kg/injection, schedule: Q01DX009 (ip), vehicle: Klucel (hydroxypropylcellulose) (HPC)): 96 % of control | T/C (dose: 100.0 mg/kg/injection, schedule: Q01DX009 (ip), vehicle: Klucel (hydroxypropylcellulose) (HPC)): 106 % of control | T/C (dose: 200.0 mg/kg/injection, schedule: Q01DX009 (ip), vehicle: Klucel (hydroxypropylcellulose) (HPC)): 103 % of control

Cc1ccc(C)c2c3c([nH]c12)-c1ccccc1CC3
T/C (dose: 50.0 mg/kg/injection, schedule: Q01DX009 (ip), vehicle: saline with Tween-80): 103 % of control | T/C (dose: 100.0 mg/kg/injection, schedule: Q01DX009 (ip), vehicle: saline with Tween-80): 107 % of control | T/C (dose: 200.0 mg/kg/injection, schedule: Q01DX009 (ip), vehicle: saline with Tween-80): 103 % of control

O=C1C=CC2(CCC23C=CC(=O)O3)O1 (stereo not given)
T/C (dose: 10.0 mg/kg/injection, schedule: Q01DX009 (ip), vehicle: Klucel (hydroxypropylcellulose) (HPC)): 98 % of control | T/C (dose: 20.0 mg/kg/injection, schedule: Q01DX009 (ip), vehicle: Klucel (hydroxypropylcellulose) (HPC)): 106 % of control | T/C (dose: 40.0 mg/kg/injection, schedule: Q01DX009 (ip), vehicle: Klucel (hydroxypropylcellulose) (HPC)): 106 % of control

Nc1ncnc2c1ncn2C1OC(CO)C(O)C1N (stereo not given)
T/C (dose: 50.0 mg/kg/injection, schedule: Q04DX002 (ip), vehicle: saline): 106 % of control | T/C (dose: 100.0 mg/kg/injection, schedule: Q04DX002 (ip), vehicle: saline): 110 % of control | T/C (dose: 200.0 mg/kg/injection, schedule: Q04DX002 (ip), vehicle: saline): 112 % of control

COc1ncnc2c1nnn2C1OC(CO)C(O)C1O (stereo not given)
T/C (dose: 25.0 mg/kg/injection, schedule: Q04DX003 (ip), vehicle: saline): 96 % of control | T/C (dose: 50.0 mg/kg/injection, schedule: Q04DX003 (ip), vehicle: saline): 105 % of control | T/C [11]: 100 % of control | T/C [12]: 109 % of control

CC(=O)NNC(=S)Nc1ccccc1
T/C [13]: 100 % of control | T/C [14]: 101 % of control | T/C [15]: 100 % of control

C/C=C/C=C/C(=O)CCC1(C)OC(=O)C(C)=C1O (stereo not given)
T/C [6]: 96 % of control | T/C [16]: 113 % of control | T/C [17]: 93 % of control

c1ccc2c(c1)oc1cc3c(cc12)n1nnnc1c1cccn31
T/C (dose: 25.0 mg/kg/injection, schedule: Q01DX005 (ip), vehicle: saline with Tween-80): 92 % of control | T/C [13]: 97 % of control | T/C [14]: 100 % of control | T/C [15]: 100 % of control

NC(=O)CCCCO
T/C [11]: 102 % of control | T/C [12]: 102 % of control | T/C (dose: 400.0 mg/kg/injection, schedule: Q04DX003 (ip), vehicle: saline): 109 % of control

C=C=C(COC(C)=O)ON1CCCCC1
T/C [7]: 111 % of control | T/C [18]: 111 % of control

ClC1=C(Cl)C2(Cl)C3C(Cl)C(Cl)CC3C1(Cl)C2(Cl)Cl (stereo not given)
T/C (dose: 3.12 mg/kg/injection, schedule: Q01DX009 (ip), vehicle: saline + Tween-80 + alcohol): 100 % of control and 101 % of control | T/C (dose: 6.25 mg/kg/injection, schedule: Q01DX009 (ip), vehicle: saline + Tween-80 + alcohol): 107 % of control and 112 % of control | T/C (dose: 12.5 mg/kg/injection, schedule: Q01DX009 (ip), vehicle: saline + Tween-80 + alcohol): 114 % of control and 87 % of control | T/C (dose: 25.0 mg/kg/injection, schedule: Q01DX009 (ip), vehicle: other): 110 % of control and 89 % of control | T/C (dose: 25.0 mg/kg/injection, schedule: Q01DX009 (ip), vehicle: saline + Tween-80 + alcohol): 103 % of control and 96 % of control | T/C [8]: 110 % of control and 86 % of control and 98 % of control | T/C [9]: 108 % of control and 93 % of control | T/C [10]: 90 % of control

COc1cc(C2c3cc4c(cc3C(O)C(CO)C2CO)OCO4)cc(OC)c1OC (stereo not given)
T/C (dose: 11.0 mg/kg/injection, schedule: Q01DX009 (ip), vehicle: saline with Tween-80): 118 % of control | T/C (dose: 25.0 mg/kg/injection, schedule: Q04DX003 (ip), vehicle: saline with Tween-80): 115 % of control | T/C (dose: 37.5 mg/kg/injection, schedule: Q01DX009 (ip), vehicle: saline with Tween-80): 150 % of control | T/C [6]: 103 % of control | T/C [16]: 97 % of control | T/C (dose: 100.0 mg/kg/injection, schedule: Q01DX009 (ip), vehicle: saline sonified): 165 % of control | T/C (dose: 100.0 mg/kg/injection, schedule: Q04DX003 (ip), vehicle: saline with Tween-80): 155 % of control | T/C [17]: 94 % of control | T/C (dose: 200.0 mg/kg/injection, schedule: Q01DX009 (ip), vehicle: saline sonified): 195 % of control | T/C (dose: 264.0 mg/kg/injection, schedule: Q04DX003 (ip), vehicle: saline with Tween-80): 154 % of control | T/C (dose: 400.0 mg/kg/injection, schedule: Q01DX009 (ip), vehicle: saline sonified): 95 % of control | T/C (dose: 400.0 mg/kg/injection, schedule: Q04DX003 (ip), vehicle: saline with Tween-80): 163 % of control

O=C1C2C3C=CC(O3)C2C(=O)N1/N=C/c1cccc2ccccc12 (stereo not given)
T/C [13]: 99 % of control | T/C [14]: 96 % of control | T/C [15]: 89 % of control

C=CC(=O)N(C)c1nc(N(C)C)nc(N(C)C)n1
T/C [6]: 102 % of control | T/C [16]: 108 % of control

C#CC(C)(C)NC(=O)NC12CC3CC(CC(C3)C1)C2
T/C (dose: 12.5 mg/kg/injection, schedule: Q01DX001 (ip), vehicle: saline with Tween-80): 94 % of control | T/C [4]: 86 % of control | T/C [5]: 89 % of control

CCCn1cnc(C(=O)OC)c1O (tested in a mixture with another compound)
T/C (dose: 100.0 mg/kg/injection, schedule: Q04DX002 (ip), vehicle: water): 101 % of control | T/C (dose: 200.0 mg/kg/injection, schedule: Q04DX002 (ip), vehicle: water): 104 % of control | T/C (dose: 400.0 mg/kg/injection, schedule: Q04DX002 (ip), vehicle: water): 101 % of control

Cc1c(O)c(=O)ccn1CCCl
T/C [7]: 104 % of control and 107 % of control | T/C [18]: 106 % of control and 107 % of control | T/C (dose: 200.0 mg/kg/injection, schedule: Q01DX005 (ip), vehicle: saline): 109 % of control and 116 % of control

CCc1ccc([O-])c(C=NCCCN(C)CCCN=Cc2cc(C)ccc2[O-])c1.[Co+3].[N-]=[N+]=[N-]
T/C [1]: 88 % of control | T/C [2]: 91 % of control | T/C [3]: 101 % of control
